Results published in the kinase profiling compilation of Christmann-Franck et al. (2016).
Values belong to the compound of their own block, whether it stands above or below them.

Experiments:
Assay in all cases: radiometric filter-binding kinase assay
CaMK1 (human) = CaMK1 (human) (UniProt Q14012)
MAPK9 (human) = MAPK9 (human) (UniProt P45984)
[1] = biological target: STK11 CAB39 STRADA (human) (UniProt Q9Y376+Q7RTN6+Q15831)
PAK4 (human) = PAK4 (human) (UniProt O96013)
MAPK14 (human) = MAPK14 (human) (UniProt Q16539)
IKBKE (human) = IKBKE (human) (UniProt Q14164)
MARK3 (human) = MARK3 (human) (UniProt P27448)
TTK (human) = TTK (human) (UniProt P33981)
MAPKAPK2 (human) = MAPKAPK2 (human) (UniProt P49137)
MAPK3 (human) = MAPK3 (human) (UniProt P27361)
IKBKB (human) = IKBKB (human) (UniProt O14920)
MARK2 (human) = MARK2 (human) (UniProt Q7KZI7)
DYRK3 (human) = DYRK3 (human) (UniProt O43781)
MKNK2 (human) = MKNK2 (human) (UniProt Q9HBH9)
MAP2K1 (human) = MAP2K1 (human) (UniProt Q02750)
PIM1 (human) = PIM1 (human) (UniProt P11309)
NEK2 (human) = NEK2 (human) (UniProt P51955)
MKNK1 (human) = MKNK1 (human) (UniProt Q9BUB5)
MARK1 (human) = MARK1 (human) (UniProt Q9P0L2)
CHEK2 (human) = CHEK2 (human) (UniProt O96017)
NUAK1 (human) = NUAK1 (human) (UniProt O60285)
TBK1 (human) = TBK1 (human) (UniProt Q9UHD2); settings: compound 10.0 µM
IRAK4 (human) = IRAK4 (human) (UniProt Q9NWZ3); settings: compound 10.0 µM
[2] = tested on: AKT1 (human), P31749 [S473D]
MAP3K11 (human) = MAP3K11 (human) (UniProt Q16584)
CSNK1D (human) = CSNK1D (human) (UniProt P48730)
NEK6 (human) = NEK6 (human) (UniProt Q9HC98)
[3] = tested on: RPS6KB1 (human), P23443 [T412E]
JAK2 JH1 JH2 (human) = JAK2 JH1 JH2 (human) (UniProt O60674)
DYRK1A (human) = DYRK1A (human) (UniProt Q13627)
EPHB2 (human) = EPHB2 (human) (UniProt P29323)
STK3 (human) = STK3 (human) (UniProt Q13188)
MAPK8 (human) = MAPK8 (human) (UniProt P45983)
NTRK1 (human) = NTRK1 (human) (UniProt P04629); settings: compound 10.0 µM
RPS6KA1 KD1 KD2 (human) = RPS6KA1 KD1 KD2 (human) (UniProt Q15418)

CHEK2 (human), sequence (O96017 whole entry, looked up): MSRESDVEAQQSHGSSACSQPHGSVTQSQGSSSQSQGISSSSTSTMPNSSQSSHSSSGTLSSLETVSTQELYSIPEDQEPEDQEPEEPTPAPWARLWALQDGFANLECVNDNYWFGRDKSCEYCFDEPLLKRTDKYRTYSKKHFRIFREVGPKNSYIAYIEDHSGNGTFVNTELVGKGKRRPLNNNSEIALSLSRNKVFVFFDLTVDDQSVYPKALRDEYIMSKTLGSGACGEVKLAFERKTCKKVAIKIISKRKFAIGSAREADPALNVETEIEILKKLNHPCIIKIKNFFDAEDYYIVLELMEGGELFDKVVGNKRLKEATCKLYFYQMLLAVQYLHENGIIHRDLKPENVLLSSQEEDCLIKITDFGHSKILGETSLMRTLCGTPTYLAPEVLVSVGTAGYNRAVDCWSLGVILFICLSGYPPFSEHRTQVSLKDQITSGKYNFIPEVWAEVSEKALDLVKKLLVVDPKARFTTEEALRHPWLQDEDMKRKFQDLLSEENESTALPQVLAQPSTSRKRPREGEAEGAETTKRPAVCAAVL
RPS6KB1 (human), P23443 [T412E], sequence (P23443 whole entry T412E, looked up): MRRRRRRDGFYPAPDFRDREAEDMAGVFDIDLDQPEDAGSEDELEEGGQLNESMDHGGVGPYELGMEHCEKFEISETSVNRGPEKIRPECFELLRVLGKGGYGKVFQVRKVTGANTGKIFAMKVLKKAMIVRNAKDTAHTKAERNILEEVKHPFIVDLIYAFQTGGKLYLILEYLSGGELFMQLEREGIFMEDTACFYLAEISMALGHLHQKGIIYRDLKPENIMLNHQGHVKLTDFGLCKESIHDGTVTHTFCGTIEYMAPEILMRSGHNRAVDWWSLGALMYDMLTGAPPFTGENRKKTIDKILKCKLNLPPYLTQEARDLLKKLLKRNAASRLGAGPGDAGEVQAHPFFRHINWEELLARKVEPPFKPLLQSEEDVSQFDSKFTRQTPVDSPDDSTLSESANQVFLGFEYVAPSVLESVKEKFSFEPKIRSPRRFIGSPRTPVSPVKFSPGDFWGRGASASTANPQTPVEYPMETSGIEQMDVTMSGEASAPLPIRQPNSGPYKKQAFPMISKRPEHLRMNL
STK11 CAB39 STRADA (human), sequence (Q15831 whole entry, looked up): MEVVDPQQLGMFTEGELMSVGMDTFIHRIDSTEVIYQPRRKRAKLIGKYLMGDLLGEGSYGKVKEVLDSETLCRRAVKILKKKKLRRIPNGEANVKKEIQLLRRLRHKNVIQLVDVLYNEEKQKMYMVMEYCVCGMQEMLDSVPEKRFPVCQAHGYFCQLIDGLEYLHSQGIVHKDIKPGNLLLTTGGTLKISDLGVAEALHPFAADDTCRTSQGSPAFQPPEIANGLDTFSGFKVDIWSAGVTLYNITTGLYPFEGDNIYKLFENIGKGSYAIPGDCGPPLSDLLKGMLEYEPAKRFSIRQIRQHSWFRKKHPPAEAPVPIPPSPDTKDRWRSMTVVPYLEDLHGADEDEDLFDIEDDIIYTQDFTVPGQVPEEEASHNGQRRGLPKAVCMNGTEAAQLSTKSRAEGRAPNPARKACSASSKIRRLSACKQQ
STK11 CAB39 STRADA (human), sequence (Q7RTN6 whole entry, looked up): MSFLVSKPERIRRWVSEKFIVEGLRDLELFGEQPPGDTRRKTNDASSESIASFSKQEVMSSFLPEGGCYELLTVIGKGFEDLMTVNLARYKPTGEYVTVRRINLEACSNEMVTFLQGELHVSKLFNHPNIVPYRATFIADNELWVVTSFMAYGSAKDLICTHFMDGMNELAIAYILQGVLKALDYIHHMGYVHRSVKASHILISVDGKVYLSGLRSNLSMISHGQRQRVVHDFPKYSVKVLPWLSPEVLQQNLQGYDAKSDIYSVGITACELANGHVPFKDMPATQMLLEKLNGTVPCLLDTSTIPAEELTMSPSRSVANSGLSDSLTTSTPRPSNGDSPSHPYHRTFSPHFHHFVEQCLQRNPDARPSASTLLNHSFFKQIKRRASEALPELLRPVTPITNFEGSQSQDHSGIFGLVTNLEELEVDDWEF
STK11 CAB39 STRADA (human), sequence (Q9Y376 whole entry, looked up): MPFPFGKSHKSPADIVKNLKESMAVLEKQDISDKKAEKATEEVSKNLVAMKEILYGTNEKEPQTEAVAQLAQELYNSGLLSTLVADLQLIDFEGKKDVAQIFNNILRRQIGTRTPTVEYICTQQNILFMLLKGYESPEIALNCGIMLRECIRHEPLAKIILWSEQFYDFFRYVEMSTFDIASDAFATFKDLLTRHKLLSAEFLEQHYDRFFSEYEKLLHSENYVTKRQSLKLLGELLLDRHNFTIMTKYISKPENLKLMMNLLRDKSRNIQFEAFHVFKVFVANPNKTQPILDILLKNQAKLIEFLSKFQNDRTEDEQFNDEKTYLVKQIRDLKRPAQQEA
MAPKAPK2 (human), sequence (P49137 whole entry, looked up): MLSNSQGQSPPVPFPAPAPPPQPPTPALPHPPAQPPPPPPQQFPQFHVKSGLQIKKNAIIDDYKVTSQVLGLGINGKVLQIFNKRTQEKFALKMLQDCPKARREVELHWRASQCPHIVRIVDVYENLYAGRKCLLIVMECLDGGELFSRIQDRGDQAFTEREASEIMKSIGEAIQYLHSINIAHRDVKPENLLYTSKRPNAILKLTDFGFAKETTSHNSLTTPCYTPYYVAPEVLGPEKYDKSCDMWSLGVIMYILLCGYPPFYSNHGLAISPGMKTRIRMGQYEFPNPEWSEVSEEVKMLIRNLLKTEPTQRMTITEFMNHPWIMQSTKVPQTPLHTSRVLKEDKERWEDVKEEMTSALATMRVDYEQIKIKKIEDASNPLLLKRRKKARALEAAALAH
CSNK1D (human), sequence (P48730 whole entry, looked up): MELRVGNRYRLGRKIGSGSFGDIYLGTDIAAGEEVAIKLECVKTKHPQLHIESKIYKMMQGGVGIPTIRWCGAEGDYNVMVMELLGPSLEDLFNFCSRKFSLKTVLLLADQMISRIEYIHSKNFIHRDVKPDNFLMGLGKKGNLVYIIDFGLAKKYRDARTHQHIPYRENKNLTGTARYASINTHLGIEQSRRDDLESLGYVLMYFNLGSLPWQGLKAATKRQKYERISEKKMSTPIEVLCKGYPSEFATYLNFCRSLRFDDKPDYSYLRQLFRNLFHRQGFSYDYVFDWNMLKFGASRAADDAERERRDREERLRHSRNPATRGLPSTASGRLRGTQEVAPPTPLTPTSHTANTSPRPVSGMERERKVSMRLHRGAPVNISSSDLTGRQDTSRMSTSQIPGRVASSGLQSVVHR
CaMK1 (human), sequence (Q14012 whole entry, looked up): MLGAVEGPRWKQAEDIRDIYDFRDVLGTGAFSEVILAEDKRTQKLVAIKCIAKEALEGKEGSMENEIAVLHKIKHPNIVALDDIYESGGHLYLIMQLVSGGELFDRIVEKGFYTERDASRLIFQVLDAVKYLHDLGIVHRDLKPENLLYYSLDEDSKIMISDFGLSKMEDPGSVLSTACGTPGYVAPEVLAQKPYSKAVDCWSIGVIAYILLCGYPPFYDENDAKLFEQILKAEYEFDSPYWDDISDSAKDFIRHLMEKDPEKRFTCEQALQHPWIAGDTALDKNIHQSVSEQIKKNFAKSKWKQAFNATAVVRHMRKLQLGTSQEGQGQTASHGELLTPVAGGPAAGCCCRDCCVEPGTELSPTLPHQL
NEK6 (human), sequence (Q9HC98 whole entry, looked up): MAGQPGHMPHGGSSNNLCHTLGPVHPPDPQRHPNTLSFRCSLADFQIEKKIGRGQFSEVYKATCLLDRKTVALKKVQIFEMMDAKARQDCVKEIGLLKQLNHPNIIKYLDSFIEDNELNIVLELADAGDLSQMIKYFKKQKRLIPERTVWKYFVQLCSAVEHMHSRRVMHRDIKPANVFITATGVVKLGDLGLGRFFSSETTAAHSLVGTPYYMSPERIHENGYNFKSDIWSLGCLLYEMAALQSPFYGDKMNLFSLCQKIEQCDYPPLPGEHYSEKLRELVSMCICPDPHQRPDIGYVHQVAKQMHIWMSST
PAK4 (human), sequence (O96013 whole entry, looked up): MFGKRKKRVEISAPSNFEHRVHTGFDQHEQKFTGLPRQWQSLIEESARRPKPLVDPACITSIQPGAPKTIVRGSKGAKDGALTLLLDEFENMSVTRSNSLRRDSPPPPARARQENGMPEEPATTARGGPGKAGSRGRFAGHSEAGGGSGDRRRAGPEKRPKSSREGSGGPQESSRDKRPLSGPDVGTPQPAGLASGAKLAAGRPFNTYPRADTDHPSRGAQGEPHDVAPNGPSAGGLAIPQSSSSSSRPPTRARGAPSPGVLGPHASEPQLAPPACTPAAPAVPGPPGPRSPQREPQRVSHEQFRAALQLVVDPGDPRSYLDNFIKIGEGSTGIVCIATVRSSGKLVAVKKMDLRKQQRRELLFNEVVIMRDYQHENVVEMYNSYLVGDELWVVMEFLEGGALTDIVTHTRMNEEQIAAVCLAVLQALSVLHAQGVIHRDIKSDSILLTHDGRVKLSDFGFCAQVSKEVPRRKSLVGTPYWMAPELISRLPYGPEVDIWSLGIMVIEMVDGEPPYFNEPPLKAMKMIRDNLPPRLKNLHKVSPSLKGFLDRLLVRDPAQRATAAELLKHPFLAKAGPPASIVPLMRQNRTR
MAPK3 (human), sequence (P27361 whole entry, looked up): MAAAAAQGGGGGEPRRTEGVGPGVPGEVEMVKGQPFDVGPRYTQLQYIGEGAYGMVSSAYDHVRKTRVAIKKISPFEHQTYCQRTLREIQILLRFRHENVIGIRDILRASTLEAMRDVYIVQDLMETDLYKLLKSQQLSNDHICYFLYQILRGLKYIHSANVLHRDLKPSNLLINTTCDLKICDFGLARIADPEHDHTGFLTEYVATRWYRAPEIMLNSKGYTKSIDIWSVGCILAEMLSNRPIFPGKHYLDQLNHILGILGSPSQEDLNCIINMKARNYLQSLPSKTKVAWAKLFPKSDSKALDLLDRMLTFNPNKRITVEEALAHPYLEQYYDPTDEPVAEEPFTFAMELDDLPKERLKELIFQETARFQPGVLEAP

- residual activity (CaMK1 (human); compound 1.0 µM): 75%
- residual activity (CaMK1 (human); compound 10.0 µM): 73%
- residual activity (CaMK1 (human); compound 50.0 µM): 38%
- residual activity (MAPK9 (human); compound 1.0 µM): 95%
- residual activity (MAPK9 (human); compound 10.0 µM): 86%
- residual activity (MAPK9 (human); compound 50.0 µM): 103%
- residual activity ([1]; compound 10.0 µM): 69%
- residual activity (PAK4 (human); compound 1.0 µM): 85%
- residual activity (PAK4 (human); compound 10.0 µM): 80%
- residual activity (PAK4 (human); compound 50.0 µM): 67%
- residual activity (MAPK14 (human); compound 1.0 µM): 95%
- residual activity (MAPK14 (human); compound 10.0 µM): 97%
- residual activity (MAPK14 (human); compound 50.0 µM): 75%
- residual activity (IKBKE (human); compound 10.0 µM): 59%
- residual activity (MARK3 (human); compound 1.0 µM): 99%
- residual activity (MARK3 (human); compound 10.0 µM): 82%
- residual activity (MARK3 (human); compound 50.0 µM): 41%
- residual activity (TTK (human); compound 10.0 µM): 83%
- residual activity (MAPKAPK2 (human); compound 1.0 µM): 118%
- residual activity (MAPKAPK2 (human); compound 10.0 µM): 88%
- residual activity (MAPKAPK2 (human); compound 50.0 µM): 71%
- residual activity (MAPK3 (human); compound 1.0 µM): 101%
- residual activity (MAPK3 (human); compound 10.0 µM): 88%
- residual activity (MAPK3 (human); compound 50.0 µM): 92%
- residual activity (IKBKB (human); compound 1.0 µM): 99%
- residual activity (IKBKB (human); compound 10.0 µM): 70%
- residual activity (IKBKB (human); compound 50.0 µM): 46%
- residual activity (MARK2 (human); compound 10.0 µM): 86%
- residual activity (DYRK3 (human); compound 1.0 µM): 38%
- residual activity (DYRK3 (human); compound 10.0 µM): 8%
- residual activity (DYRK3 (human); compound 50.0 µM): 2%
- residual activity (MKNK2 (human); compound 1.0 µM): 74%
- residual activity (MKNK2 (human); compound 10.0 µM): 96%
- residual activity (MKNK2 (human); compound 50.0 µM): 34%
- residual activity (MAP2K1 (human); compound 1.0 µM): 99%
- residual activity (MAP2K1 (human); compound 10.0 µM): 81%
- residual activity (MAP2K1 (human); compound 50.0 µM): 75%
- residual activity (PIM1 (human); compound 1.0 µM): 50%
- residual activity (PIM1 (human); compound 10.0 µM): 30%
- residual activity (PIM1 (human); compound 50.0 µM): 4%
- residual activity (NEK2 (human); compound 1.0 µM): 96%
- residual activity (NEK2 (human); compound 10.0 µM): 91%
- residual activity (NEK2 (human); compound 50.0 µM): 83%
- residual activity (MKNK1 (human); compound 1.0 µM): 102%
- residual activity (MKNK1 (human); compound 10.0 µM): 66%
- residual activity (MKNK1 (human); compound 50.0 µM): 125%
- residual activity (MARK1 (human); compound 10.0 µM): 96%
- residual activity (CHEK2 (human); compound 1.0 µM): 84%
- residual activity (CHEK2 (human); compound 10.0 µM): 79%
- residual activity (CHEK2 (human); compound 50.0 µM): 14%
- residual activity (NUAK1 (human); compound 10.0 µM): 68%
- residual activity (TBK1 (human)): 79%
- residual activity (IRAK4 (human)): 73%
- residual activity ([2]; compound 1.0 µM): 82%
- residual activity ([2]; compound 10.0 µM): 89%
- residual activity ([2]; compound 50.0 µM): 63%
- residual activity (MAP3K11 (human); compound 10.0 µM): 35%
- residual activity (CSNK1D (human); compound 1.0 µM): 84%
- residual activity (CSNK1D (human); compound 10.0 µM): 94%
- residual activity (CSNK1D (human); compound 50.0 µM): 46%
- residual activity (NEK6 (human); compound 1.0 µM): 104%
- residual activity (NEK6 (human); compound 10.0 µM): 96%
- residual activity (NEK6 (human); compound 50.0 µM): 87%
- residual activity ([3]; compound 1.0 µM): 93%
- residual activity ([3]; compound 10.0 µM): 69%
- residual activity ([3]; compound 50.0 µM): 15%
- residual activity (JAK2 JH1 JH2 (human); compound 10.0 µM): 27%
- residual activity (DYRK1A (human); compound 1.0 µM): 94%
- residual activity (DYRK1A (human); compound 10.0 µM): 61%
- residual activity (DYRK1A (human); compound 50.0 µM): 17%
- residual activity (EPHB2 (human); compound 10.0 µM): 116%
- residual activity (STK3 (human); compound 1.0 µM): 84%
- residual activity (STK3 (human); compound 10.0 µM): 69%
- residual activity (STK3 (human); compound 50.0 µM): 28%
- residual activity (MAPK8 (human); compound 1.0 µM): 96%
- residual activity (MAPK8 (human); compound 10.0 µM): 108%
- residual activity (MAPK8 (human); compound 50.0 µM): 101%
- residual activity (NTRK1 (human)): 67%
- residual activity (RPS6KA1 KD1 KD2 (human); compound 1.0 µM): 77%
- residual activity (RPS6KA1 KD1 KD2 (human); compound 10.0 µM): 63%
- residual activity (RPS6KA1 KD1 KD2 (human); compound 50.0 µM): 15%
SMILES: Oc1ccc(/C=C/c2cc(O)cc(O)c2)cc1

- residual activity (CaMK1 (human); compound 1.0 µM): 114%
- residual activity (CaMK1 (human); compound 10.0 µM): 110%
- residual activity (MAPK9 (human); compound 1.0 µM): 83%
- residual activity (MAPK9 (human); compound 10.0 µM): 88%
- residual activity ([1]; compound 1.0 µM): 127%
- residual activity ([1]; compound 10.0 µM): 104%
- residual activity (PAK4 (human); compound 1.0 µM): 101%
- residual activity (PAK4 (human); compound 10.0 µM): 106%
- residual activity (MAPK14 (human); compound 10.0 µM): 102%
- residual activity (IKBKE (human); compound 1.0 µM): 73%
- residual activity (IKBKE (human); compound 10.0 µM): 78%
- residual activity (MARK3 (human); compound 1.0 µM): 101%
- residual activity (MARK3 (human); compound 10.0 µM): 100%
- residual activity (TTK (human); compound 1.0 µM): 86%
- residual activity (TTK (human); compound 10.0 µM): 98%
- residual activity (MAPKAPK2 (human); compound 1.0 µM): 88%
- residual activity (MAPKAPK2 (human); compound 10.0 µM): 93%
- residual activity (MAPK3 (human); compound 1.0 µM): 77%
- residual activity (MAPK3 (human); compound 10.0 µM): 73%
- residual activity (IKBKB (human); compound 1.0 µM): 100%
- residual activity (IKBKB (human); compound 10.0 µM): 96%
- residual activity (MARK2 (human); compound 1.0 µM): 90%
- residual activity (MARK2 (human); compound 10.0 µM): 88%
- residual activity (DYRK3 (human); compound 10.0 µM): 84%
- residual activity (MKNK2 (human); compound 10.0 µM): 108%
- residual activity (MAP2K1 (human); compound 1.0 µM): 95%
- residual activity (MAP2K1 (human); compound 10.0 µM): 99%
- residual activity (PIM1 (human); compound 10.0 µM): 103%
- residual activity (NEK2 (human); compound 1.0 µM): 109%
- residual activity (NEK2 (human); compound 10.0 µM): 100%
- residual activity (MKNK1 (human); compound 1.0 µM): 104%
- residual activity (MKNK1 (human); compound 10.0 µM): 92%
- residual activity (MARK1 (human); compound 1.0 µM): 100%
- residual activity (MARK1 (human); compound 10.0 µM): 107%
- residual activity (CHEK2 (human); compound 10.0 µM): 67%
- residual activity (NUAK1 (human); compound 1.0 µM): 98%
- residual activity (NUAK1 (human); compound 10.0 µM): 96%
- residual activity (TBK1 (human)): 88%
- residual activity (IRAK4 (human)): 99%
- residual activity ([2]; compound 1.0 µM): 118%
- residual activity ([2]; compound 10.0 µM): 119%
- residual activity (MAP3K11 (human); compound 1.0 µM): 92%
- residual activity (MAP3K11 (human); compound 10.0 µM): 92%
- residual activity (CSNK1D (human); compound 1.0 µM): 86%
- residual activity (CSNK1D (human); compound 10.0 µM): 84%
- residual activity (NEK6 (human); compound 10.0 µM): 102%
- residual activity ([3]; compound 1.0 µM): 94%
- residual activity ([3]; compound 10.0 µM): 85%
- residual activity (JAK2 JH1 JH2 (human); compound 1.0 µM): 89%
- residual activity (JAK2 JH1 JH2 (human); compound 10.0 µM): 93%
- residual activity (DYRK1A (human); compound 1.0 µM): 96%
- residual activity (DYRK1A (human); compound 10.0 µM): 103%
- residual activity (EPHB2 (human); compound 1.0 µM): 107%
- residual activity (EPHB2 (human); compound 10.0 µM): 109%
- residual activity (STK3 (human); compound 1.0 µM): 87%
- residual activity (STK3 (human); compound 10.0 µM): 84%
- residual activity (MAPK8 (human); compound 1.0 µM): 84%
- residual activity (MAPK8 (human); compound 10.0 µM): 97%
- residual activity (NTRK1 (human)): 92%
- residual activity (RPS6KA1 KD1 KD2 (human); compound 1.0 µM): 96%
- residual activity (RPS6KA1 KD1 KD2 (human); compound 10.0 µM): 95%
SMILES: NS(=O)(=O)OC[C@@H]1C[C@@H](n2ccc3c(N[C@H]4CCc5ccccc54)ncnc32)C[C@@H]1O
